Source: patent US20250129062A1, “AMORPHOUS SUBSTANCES, CRYSTALS, PHARMACEUTICAL COMPOSITIONS, PREPARATION METHODS AND USES OF THIOHYDANTOIN COMPOUND OR PHARMACEUTICALLY ACCEPTABLE SALT THEREOF” (SUZHOU KINTOR PHARMACEUTICALS, INC., priority 2021, published 2025)
≈ marks a conversion by molar mass, not a printed value. Where two headings read alike, the source gives them in different places.

Assay: Solubility of amorphous substance in solvent systems (supersaturated solution, oscillated 24 h at room temperature, HPLC)
Assay type: physicochemical
Settings: for solubility at 24 h: thermodynamic from solid
Description: The amorphous substance of the compound of formula I was prepared into supersaturated solutions with different solvents, and oscillated under a room temperature condition (a constant temperature). After oscillating for 24 h, sampling was performed, and the content of the sample was detected by HPLC under condition 1.
Condition 1: • Chromatographic column: C18 (150 mm×4.6 mm×3.5 μm); • Mobile phase: binary mobile phase system, mobile phase A was 0.1% formic acid in water, mobile phase B was acetonitrile; • Elution time: 68 min; • Elution mode: gradient elution (in the gradient elution process, mobile phase A had the maximum volume percentage of 95% and the minimum volume percentage of 10%); • Detection wavelength: 270 nm.

Cc1ncsc1-c1ccc(CNC(=O)[C@@H]2C[C@@H](O)CN2C(=O)[C@@H](NC(=O)COCCCCOc2ccc(-c3ccc(N4C(=S)N(c5ccc(C#N)c(C(F)(F)F)c5F)C(=O)C4(C)C)cn3)cc2)C(C)(C)C)cc1
Solubility (Dehydrated alcohol 35%-propylene glycol 45%-water 20% (w/w)): >154.31 mg/mL
Solubility (Dehydrated alcohol 40%-propylene glycol 50%-water 10% (w/w)): >64.56 mg/mL
solubility at 24 h (dehydrated alcohol 10%-propylene glycol 20%-water 70% (w/w), aqueous with cosolvent or surfactant or cyclodextrin, Dehydrated alcohol 10%-propylene glycol 20%-water 70% (w/w), read-out: Solubility): 30 µg/mL (≈ 0.0288 mM)
solubility at 24 h (dehydrated alcohol 10%-propylene glycol 30%-water 60% (w/w), aqueous with cosolvent or surfactant or cyclodextrin, Dehydrated alcohol 10%-propylene glycol 30%-water 60% (w/w), read-out: Solubility): 450 µg/mL (≈ 0.431 mM)
solubility at 24 h (dehydrated alcohol 10%: water 90% (w/w), aqueous with cosolvent or surfactant or cyclodextrin, Dehydrated alcohol 10%: water 90% (w/w), read-out: 24 h solubility): 140 µg/mL (≈ 0.134 mM)
solubility at 24 h (dehydrated alcohol 20%-propylene glycol 20%-water 60% (w/w), aqueous with cosolvent or surfactant or cyclodextrin, Dehydrated alcohol 20%-propylene glycol 20%-water 60% (w/w), read-out: Solubility): 80 µg/mL (≈ 0.0767 mM)
solubility at 24 h (dehydrated alcohol 20%-propylene glycol 30%-water 50% (w/w), aqueous with cosolvent or surfactant or cyclodextrin, Dehydrated alcohol 20%-propylene glycol 30%-water 50% (w/w), read-out: Solubility): 440 µg/mL (≈ 0.422 mM)
solubility at 24 h (dehydrated alcohol 20%-propylene glycol 40%-water 40% (w/w), aqueous with cosolvent or surfactant or cyclodextrin, Dehydrated alcohol 20%-propylene glycol 40%-water 40% (w/w), read-out: Solubility): 3790 µg/mL (≈ 3.63 mM)
solubility at 24 h (dehydrated alcohol 20%-propylene glycol 50%-water 30% (w/w), aqueous with cosolvent or surfactant or cyclodextrin, Dehydrated alcohol 20%-propylene glycol 50%-water 30% (w/w), read-out: Solubility): 12600 µg/mL (≈ 12.1 mM)
solubility at 24 h (dehydrated alcohol 20%: water 80% (w/w), aqueous with cosolvent or surfactant or cyclodextrin, Dehydrated alcohol 20%: water 80% (w/w), read-out: 24 h solubility): 140 µg/mL (≈ 0.134 mM)
solubility at 24 h (dehydrated alcohol 30%: water 70% (w/w), aqueous with cosolvent or surfactant or cyclodextrin, Dehydrated alcohol 30%: water 70% (w/w), read-out: 24 h solubility): 110 µg/mL (≈ 0.105 mM)
solubility at 24 h (dehydrated alcohol 35%-propylene glycol 45%-water 20% (w/w), aqueous with cosolvent or surfactant or cyclodextrin, Dehydrated alcohol 35%-propylene glycol 45%-water 20% (w/w), read-out: Solubility): > 154000 µg/mL
solubility at 24 h (dehydrated alcohol 40%-propylene glycol 50%-water 10% (w/w), aqueous with cosolvent or surfactant or cyclodextrin, Dehydrated alcohol 40%-propylene glycol 50%-water 10% (w/w), read-out: Solubility): > 64600 µg/mL
solubility at 24 h (dehydrated alcohol 40%: water 60% (w/w), aqueous with cosolvent or surfactant or cyclodextrin, Dehydrated alcohol 40%: water 60% (w/w), read-out: 24 h solubility): 510 µg/mL (≈ 0.489 mM)
solubility at 24 h (dehydrated alcohol 60%: water 40% (w/w), organic solvent or mixture, Dehydrated alcohol 60%: water 40% (w/w), read-out: 24 h solubility): 26000 µg/mL (≈ 24.9 mM)
solubility at 24 h (dehydrated alcohol 70%: water 30% (w/w), organic solvent or mixture, Dehydrated alcohol 70%: water 30% (w/w), read-out: 24 h solubility): > 34900 µg/mL
solubility at 24 h (dehydrated alcohol 80%: water 20% (w/w), organic solvent or mixture, Dehydrated alcohol 80%: water 20% (w/w), read-out: 24 h solubility): > 42100 µg/mL
solubility at 24 h (dehydrated alcohol 90%: water 10% (w/w), organic solvent or mixture, Dehydrated alcohol 90%: water 10% (w/w), read-out: 24 h solubility): > 77700 µg/mL
solubility at 24 h (dehydrated alcohol, organic solvent or mixture, solvent: Dehydrated alcohol, read-out: 24 h solubility): > 54000 µg/mL
solubility at 24 h (dehydrated alcohol-PEG400-water solvent mixture, aqueous with cosolvent or surfactant or cyclodextrin, Dehydrated alcohol 10%-PEG400 10%-water 80% (w/w), read-out: Solubility): 10 µg/mL (≈ 0.00959 mM)
solubility at 24 h (dehydrated alcohol-PEG400-water solvent mixture, aqueous with cosolvent or surfactant or cyclodextrin, Dehydrated alcohol 10%-PEG400 20%-water 70% (w/w), read-out: Solubility): 20 µg/mL (≈ 0.0192 mM)
solubility at 24 h (dehydrated alcohol-PEG400-water solvent mixture, aqueous with cosolvent or surfactant or cyclodextrin, Dehydrated alcohol 20%-PEG400 20%-water 60% (w/w), read-out: Solubility): 160 µg/mL (≈ 0.153 mM)
solubility at 24 h (dehydrated alcohol-PEG400-water solvent mixture, aqueous with cosolvent or surfactant or cyclodextrin, Dehydrated alcohol 20%-PEG400 30%-water 50% (w/w), read-out: Solubility): 910 µg/mL (≈ 0.872 mM)
solubility at 24 h (dehydrated alcohol-PEG400-water solvent mixture, aqueous with cosolvent or surfactant or cyclodextrin, Dehydrated alcohol 20%-PEG400 40%-water 40% (w/w), read-out: Solubility): 7900 µg/mL (≈ 7.57 mM)
solubility at 24 h (dehydrated alcohol-PEG400-water solvent mixture, aqueous with cosolvent or surfactant or cyclodextrin, Dehydrated alcohol 30%-PEG400 10%-water 60% (w/w), read-out: Solubility): 310 µg/mL (≈ 0.297 mM)
solubility at 24 h (dehydrated alcohol-PEG400-water solvent mixture, aqueous with cosolvent or surfactant or cyclodextrin, Dehydrated alcohol 30%-PEG400 20%-water 50% (w/w), read-out: Solubility): 1950 µg/mL (≈ 1.87 mM)
solubility at 24 h (dehydrated alcohol-PEG400-water solvent mixture, aqueous with cosolvent or surfactant or cyclodextrin, Dehydrated alcohol 30%-PEG400 30%-water 40% (w/w), read-out: Solubility): 11600 µg/mL (≈ 11.1 mM)
solubility at 24 h (dehydrated alcohol-PEG400-water solvent mixture, aqueous with cosolvent or surfactant or cyclodextrin, Dehydrated alcohol 30%-PEG400 40%-water 30% (w/w), read-out: Solubility): 89200 µg/mL (≈ 85.5 mM)
solubility at 24 h (dehydrated alcohol-PEG400-water solvent mixture, aqueous with cosolvent or surfactant or cyclodextrin, Dehydrated alcohol 35%-PEG400 30%-water 35% (w/w), read-out: Solubility): 35700 µg/mL (≈ 34.2 mM)
solubility at 24 h (dehydrated alcohol-PEG400-water solvent mixture, aqueous with cosolvent or surfactant or cyclodextrin, Dehydrated alcohol 35%-PEG400 35%-water 30% (w/w), read-out: Solubility): 117000 µg/mL (≈ 112 mM)
solubility at 24 h (dehydrated alcohol-PEG400-water solvent mixture, aqueous with cosolvent or surfactant or cyclodextrin, Dehydrated alcohol 35%-PEG400 40%-water 25% (w/w), read-out: Solubility): > 181000 µg/mL
solubility at 24 h (dehydrated alcohol-PEG400-water solvent mixture, aqueous with cosolvent or surfactant or cyclodextrin, Dehydrated alcohol 35%-PEG400 45%-water 20% (w/w), read-out: Solubility): > 258000 µg/mL
solubility at 24 h (dehydrated alcohol-PEG400-water solvent mixture, aqueous with cosolvent or surfactant or cyclodextrin, Dehydrated alcohol 40%-PEG400 10%-water 50% (w/w), read-out: Solubility): 3350 µg/mL (≈ 3.21 mM)
solubility at 24 h (dehydrated alcohol-PEG400-water solvent mixture, aqueous with cosolvent or surfactant or cyclodextrin, Dehydrated alcohol 40%-PEG400 20%-water 40% (w/w), read-out: Solubility): 17400 µg/mL (≈ 16.7 mM)
solubility at 24 h (dehydrated alcohol-PEG400-water solvent mixture, aqueous with cosolvent or surfactant or cyclodextrin, Dehydrated alcohol 40%-PEG400 30%-water 30% (w/w), read-out: Solubility): 111000 µg/mL (≈ 106 mM)
solubility at 24 h (dehydrated alcohol-PEG400-water solvent mixture, aqueous with cosolvent or surfactant or cyclodextrin, Dehydrated alcohol 40%-PEG400 40%-water 20% (w/w), read-out: Solubility): > 49100 µg/mL
solubility at 24 h (dehydrated alcohol-PEG400-water solvent mixture, aqueous with cosolvent or surfactant or cyclodextrin, Dehydrated alcohol 50%-PEG400 30%-water 20% (w/w), read-out: Solubility): > 49700 µg/mL
solubility at 24 h (dehydrated alcohol-PEG400-water solvent mixture, aqueous with cosolvent or surfactant or cyclodextrin, Dehydrated alcohol 50%-PEG400 40%-water 10% (w/w), read-out: Solubility): > 48500 µg/mL
solubility at 24 h (dehydrated alcohol-propylene glycol-water solvent mixture, aqueous with cosolvent or surfactant or cyclodextrin, Dehydrated alcohol 10%-propylene glycol 40%-water 50% (w/w), read-out: Solubility): 540 µg/mL (≈ 0.518 mM)
solubility at 24 h (dehydrated alcohol-propylene glycol-water solvent mixture, aqueous with cosolvent or surfactant or cyclodextrin, Dehydrated alcohol 10%-propylene glycol 50%-water 40% (w/w), read-out: Solubility): 1490 µg/mL (≈ 1.43 mM)
solubility at 24 h (dehydrated alcohol-propylene glycol-water solvent mixture, aqueous with cosolvent or surfactant or cyclodextrin, Dehydrated alcohol 20%-propylene glycol 10%-water 70% (w/w), read-out: Solubility): 40 µg/mL (≈ 0.0383 mM)
solubility at 24 h (dehydrated alcohol-propylene glycol-water solvent mixture, aqueous with cosolvent or surfactant or cyclodextrin, Dehydrated alcohol 30%-propylene glycol 10%-water 60% (w/w), read-out: Solubility): 200 µg/mL (≈ 0.192 mM)
solubility at 24 h (dehydrated alcohol-propylene glycol-water solvent mixture, aqueous with cosolvent or surfactant or cyclodextrin, Dehydrated alcohol 30%-propylene glycol 20%-water 50% (w/w), read-out: Solubility): 2520 µg/mL (≈ 2.42 mM)
solubility at 24 h (dehydrated alcohol-propylene glycol-water solvent mixture, aqueous with cosolvent or surfactant or cyclodextrin, Dehydrated alcohol 30%-propylene glycol 30%-water 40% (w/w), read-out: Solubility): 6390 µg/mL (≈ 6.13 mM)
solubility at 24 h (dehydrated alcohol-propylene glycol-water solvent mixture, aqueous with cosolvent or surfactant or cyclodextrin, Dehydrated alcohol 30%-propylene glycol 40%-water 30% (w/w), read-out: Solubility): 25200 µg/mL (≈ 24.2 mM)
solubility at 24 h (dehydrated alcohol-propylene glycol-water solvent mixture, aqueous with cosolvent or surfactant or cyclodextrin, Dehydrated alcohol 30%-propylene glycol 50%-water 20% (w/w), read-out: Solubility): > 178000 µg/mL
solubility at 24 h (dehydrated alcohol-propylene glycol-water solvent mixture, aqueous with cosolvent or surfactant or cyclodextrin, Dehydrated alcohol 35%-propylene glycol 35%-water 30% (w/w), read-out: Solubility): 52300 µg/mL (≈ 50.1 mM)
solubility at 24 h (dehydrated alcohol-propylene glycol-water solvent mixture, aqueous with cosolvent or surfactant or cyclodextrin, Dehydrated alcohol 35%-propylene glycol 40%-water 25% (w/w), read-out: Solubility): 62700 µg/mL (≈ 60.1 mM)
solubility at 24 h (dehydrated alcohol-propylene glycol-water solvent mixture, aqueous with cosolvent or surfactant or cyclodextrin, Dehydrated alcohol 35%-propylene glycol 50%-water 15% (w/w), read-out: Solubility): > 189000 µg/mL
solubility at 24 h (dehydrated alcohol-propylene glycol-water solvent mixture, aqueous with cosolvent or surfactant or cyclodextrin, Dehydrated alcohol 40%-propylene glycol 10%-water 50% (w/w), read-out: Solubility): 3020 µg/mL (≈ 2.89 mM)
solubility at 24 h (dehydrated alcohol-propylene glycol-water solvent mixture, aqueous with cosolvent or surfactant or cyclodextrin, Dehydrated alcohol 40%-propylene glycol 20%-water 40% (w/w), read-out: Solubility): 19500 µg/mL (≈ 18.7 mM)
solubility at 24 h (dehydrated alcohol-propylene glycol-water solvent mixture, aqueous with cosolvent or surfactant or cyclodextrin, Dehydrated alcohol 40%-propylene glycol 30%-water 30% (w/w), read-out: Solubility): 49800 µg/mL (≈ 47.7 mM)
solubility at 24 h (dehydrated alcohol-propylene glycol-water solvent mixture, aqueous with cosolvent or surfactant or cyclodextrin, Dehydrated alcohol 40%-propylene glycol 40%-water 20% (w/w), read-out: Solubility): > 97600 µg/mL
